From US20110251238A1, “PPAR AGONIST COMPOSITIONS AND METHODS OF USE” (BIOPHARMED, priority 2008, published 2011)

Legend:
[1] = system: orthotopic grafts of human glioblastoma cell lines; experiment: Orthotopic grafts of human glioblastoma cell lines in brains of nude mice, survival; format: in vivo; conditions: FIG. 1
Procedure: Additional in vivo experiments were carried on nude mice. Briefly, orthotopic grafts of human glioblastoma cell lines were implanted into the brains of nude mice according to the general methodology of Branle et al., (2002) Cancer, 95, 641-655) and Lefranc et al., (2004) Clin. Can. Res., 10, 8250-8265. […] Results are shown in FIG. 1, illustrating the comparative activity of the PPAR agonist BPM18,708 and the reference drug Temodar™ (temozolomide) the only FDA approved drug for glioblastoma grade IV.

[2] = system: Host; experiment: Growth inhibition, MTT colorimetric assay, Host; format: cell-based; conditions: 72 h; 3 days with drug; means of six values; unit inferred; read-out: IC50 Host
Outline: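 MTT colorimetric measurement of proliferation gives the IC50, averaged from six separate values. Drug exposure lasted 3 days.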

[3] = system: BxPC3 (pancreatic cancer); experiment: Growth inhibition, MTT colorimetric assay, BxPC3; format: cell-based, human; conditions: Homo sapiens, BXPC-3, 72 h; carcinoma; 3 days with drug; means of six values; unit inferred; read-out: IC50 BxPC3
Procedure: Cells are cultured at 37° C. in Falcon culture dishes, incubated at 5% CO2 in a suitable culture medium available from Invitrogen Corp. Anti-proliferative activity is determined by an MTT assay (bromide of (3-[4,5-dimethylthiazolium-yl]diphenyltetrazolium)). According to one standard protocol, absorbance is measured at 570 nm (see Dumont et al. (2007) Neoplasia 9: 766-776.
(§1) A549 (human lung adenocarcinoma epithelial), BxPC3 (pancreatic cancer), LoVo (colon cancer), MCF-7 (epithelial breast cancer), PC3 (human prostate cancer), Hs683 (human glioma), T98G (glioblastoma), U373 (human glioblastoma-astrocytoma), U138 MG (human glioma), epithelial-like), SKMEL28 (human melanoma), B16-F10 (mouse melanoma) and RhTP (rhabdomyosarcoma) cell lines were cultured in presence of the drugs for 3 days. The cytotoxic activity is expressed as (IC50). Inhibition of cell proliferation measured by the MTT colorimetric assay. The values reported in Table 4 are means of six distinct values.

[4] = target: T1, PPARγ (Homo sapiens, UniProt P37231); experiment: PPAR in vitro cellular (transactivation) assay in MCF-7 cells; format: cell-based
T1 construct: endogenous in cells; host or cells: MCF-7
T1 sequence (P37231 whole entry): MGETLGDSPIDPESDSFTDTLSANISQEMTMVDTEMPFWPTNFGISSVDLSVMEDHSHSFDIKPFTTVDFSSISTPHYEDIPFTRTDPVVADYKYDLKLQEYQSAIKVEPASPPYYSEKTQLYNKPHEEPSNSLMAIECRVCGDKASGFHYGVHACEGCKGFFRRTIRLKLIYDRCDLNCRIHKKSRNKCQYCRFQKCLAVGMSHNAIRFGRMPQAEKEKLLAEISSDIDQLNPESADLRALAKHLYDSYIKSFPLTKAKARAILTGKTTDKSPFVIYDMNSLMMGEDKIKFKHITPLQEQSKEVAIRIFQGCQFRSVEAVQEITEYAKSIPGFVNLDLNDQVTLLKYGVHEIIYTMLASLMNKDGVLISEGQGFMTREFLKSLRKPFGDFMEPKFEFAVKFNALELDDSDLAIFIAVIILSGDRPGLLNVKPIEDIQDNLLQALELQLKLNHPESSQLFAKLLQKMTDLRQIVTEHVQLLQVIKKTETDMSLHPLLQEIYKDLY
Procedure: Compounds BPM18,708 and BPM19,107 were selected as representative analogues and tested in a PPAR in vitro cellular assay. Thiazolidinediones rosiglitazone and troglitazone were used as reference PPARγ agonists.
For transfection experiments, MCF-7 cells were cultured in six-well plates in 2 ml DMEM:F12 supplemented with 5% FBS. When cells were 50-60% confluent, siRNA duplexes and/or reporter gene constructs were transfected using OligofectAMINE reagent (Invitrogen). According to methods described in previous studies siRNAs were transfected in each well to give a final concentration of 70 nM. Cells were harvested in 48-56 h after transfection by manual scraping in lysis buffer (Promega). Whole cell extracts were frozen in liquid nitrogen for 30 s, vortexed by 30 s, and centrifuged to give lysates cell lysates from this experiment were analyzed for PPARγ protein by Western blot analysis. Relative intensities of the PPARγ protein were compared with a nonspecific band and results of three replicate studies were determined in the various treatment groups.
Whole cell lysates were extracted using Western sampling buffer. Protein samples were heated at 100 C for 5 min, separated on 10% SDS-PAGE and transferred to polyvinylidene difluoride (PVDF) membrane (Amersham Pharmacia Biotech, Piscataway, N.J.). […]

[5] = system: caspases 3/7; experiment: Caspases 3/7 activation in HL60 cells (DEVD reagent); format: cell-based, human; conditions: 48 hours
Text: 7223, using standard commercially available diagnostic kits (Calbiochem, USA). Assay reagents used were DEVD for caspases 3/7, […] for caspases 8, and LEHD for caspases 9. Moreover, colchicine was used as reference compound that induces this activity of caspases.

[6] = system: T98G (glioblastoma); experiment: cells; format: cell-based; conditions: Homo sapiens, T98G, 72 h; glioma; 3 days with drug; means of six values; unit inferred; read-out: IC50 T98G
Procedure: as §1

Question: Which results are given for `Oc1ccc(CN(Cc2ccc(C(F)(F)F)cc2)Cc2ccc(O)c3ncccc23)c2cccnc12` [BPM18,708, 5,5′-(4-(trifluoromethyl)benzylazanediyl)bis(methylene)diquinolin-8-ol]?
Answer: in vivo activity (survival) compared with Temodar [1]: at least as active as Temodar™; IC50 [2]: 97 nM; IC50 [3]: 4300 nM; PPARγ ligand/agonist activity in transactivation assays [4]: ligands and agonists of PPARγ; activation of caspases 3/7 ([5]; 0.01 μM): neither BPM18,708 nor BPM19,107 has an effect; activation of caspases 3/7 ([5]; 0.1 μM): strong effect; activation of caspases 3/7 ([5]; 1 μM): strong effect; IC50 [6]: 99 nM
